Results: patent US20150297733A1 (TRIMEL BIOPHARMA SRL, priority 2012, published 2015)
Like-named read-outs stand apart in the source and are kept apart here.

What was measured:
[1] = target: T1, sex hormone binding globulin (SHBG) (Homo sapiens, UniProt P04278); settings: cited from earlier work
T1 sequence (P04278 30-402): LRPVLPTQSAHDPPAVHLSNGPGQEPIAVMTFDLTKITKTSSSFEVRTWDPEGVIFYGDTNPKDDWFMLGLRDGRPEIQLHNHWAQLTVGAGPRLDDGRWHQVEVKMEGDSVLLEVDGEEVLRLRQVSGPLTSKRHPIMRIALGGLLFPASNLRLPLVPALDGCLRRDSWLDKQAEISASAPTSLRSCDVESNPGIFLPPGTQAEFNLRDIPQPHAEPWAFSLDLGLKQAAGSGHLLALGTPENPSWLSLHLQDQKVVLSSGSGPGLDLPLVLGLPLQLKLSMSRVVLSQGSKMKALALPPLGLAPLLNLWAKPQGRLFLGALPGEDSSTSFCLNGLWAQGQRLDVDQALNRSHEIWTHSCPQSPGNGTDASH

[2] = Solubility of testosterone in water, oils, solvents and vehicles
[3] = nasal, cited from earlier work
[4] = dissolved in polyethylene glycol (200 mg/ml); high variations; cited from earlier work
[5] = nasal, cited from earlier work; remark: listed apart in the source

In the case of `C[C@]12CC[C@H]3[C@@H](CCC4=CC(=O)CC[C@@]43C)[C@@H]1CC[C@@H]2O` [Testosterone], the “fraction remaining unbound (free)” value ([1]; in men) is listed as “about 2%”, the “fraction remaining unbound (free)” value ([1]; in women) is listed as “up to 3%” and the “amount dissolved by diethyleneglycol ethyl ether alone” value [2] is listed as “more than 10%”. The “amount dissolved by dimethyl isosorbide (DMI)” value [2] was “more than 12%”, the “testosterone levels in the gel allowed by DMI with the other excipients” value [2] was “at least 8.0%” and the “testosterone solubility in the oil based gel” value ([2]; oil based TBS-1A gel as printed) was at most 4.5%.

For `CN(C)CC(=O)O[C@H]1CC[C@H]2[C@@H]3CCC4=CC(=O)CC[C@]4(C)[C@H]3CC[C@]12C` [testosterone 17β-N,N-dimethylglycinate], the “time to peak plasma concentration” value ([3]; 25 mg dose) is listed as at most 12 min and the “time to peak plasma concentration” value ([3]; 50 mg dose) is listed as at most 20 min.

In the case of `CC(=O)[C@H]1CC[C@H]2[C@@H]3CCC4=CC(=O)CC[C@]4(C)[C@H]3CC[C@]12C` [progesterone], the “duration of serum level” value [4] is listed as “at least 8 hours”, the Tmax ([5]; co-ground and co-lyophilized progesterone/cyclodextrin powder mixtures) is listed as 2 to 5 min and the “time of serum level decrease” value ([5]; progesterone/cyclodextrin powder mixtures) is listed as at most 20 min.
